Assay results taken from patent US20100125059A1, “1-BIARYLAZETIDINONE DERIVATIVE” (Teijin Pharma Limited, priority 2007, published 2010).
Like-named read-outs stand apart in the source and are kept apart here.

Test system: hamsters fed a high cholesterol diet
Test: Measurement of lipid lowering effect in hamsters fed a high cholesterol diet
Type: in vivo, Male Golden Syrian hamsters
Conditions: Mesocricetus auratus, po, 168 h, gavage once daily, 7 days
Protocol: Male Golden Syrian hamsters are divided into groups each consisting of 6 animals and fed a controlled high cholesterol diet (CE-2 containing 0.5% cholesterol; CLEA Japan, Inc.) for 28 days at most. From the start of feeding of the high cholesterol diet, the test compounds are administered by gavage once daily. For the administration, 0.2 mL of corn oil alone per 100 g (control group) or a solution (or suspension) of the test compound in corn oil at a dose of 0.01 to 10 mg/kg was given. At the same time, a group fed with a normal diet during the same study period is handled as a normal group. 4 hours after the last administration, whole blood is collected from the abdominal aorta under light anesthesia with ether and serum is separated from the blood. Further, livers are harvested, wet liver weights are measured, and part (about 0.5 g) of the harvested livers are extracted and weighed. 2-propanol in an amount 4 times the weight of the extracted livers are added, the resulted mixtures are homogenized, and the centrifuged supernatant are recovered and used as liver-derived samples.
Serum and liver TC concentrations are determined by an enzyme method using L-type Wako CHO•H (Wako Pure Chemical Industries Ltd.) or Cholestest CHO (Daiichi Pure Chemicals Co., Ltd.). Serum TG concentrations are determined by an enzyme method using L-type Wako TG•H (Wako Pure Chemical Industries Ltd.) or Autosera S TG-N (Daiichi Pure Chemicals Co., Ltd.) and a free glycerine elimination method. LDL-C concentrations are determined by a direct method using L-type Wako LDL-C•M (Wako Pure Chemical Industries Ltd.) or Cholestest LDL (Daiichi Pure Chemicals Co., Ltd.). Human serum was commonly used as a sample for the calibration curve for determinations of serum and liver TC concentrations, serum TG concentration, and serum LDL-C concentration. The effect of the test compound is shown by a suppression rate (%) of an increase in serum TC concentration due to feeding of the high cholesterol diet, a serum TG lowering rate (%), a suppression rate (%) of an increase in serum LDL-C concentration due to feeding of the high cholesterol diet, and a suppression rate (%) of an increase in liver TC concentration due to feeding of the high cholesterol diet calculated in accordance with the following equations.
In the Equation 2, A is the control group, B is the test compound group, and C is the normal group.
In the Equation 3, A is the control group, B is the test compound group, and C is the normal group.
In the Equation 4, A is the control group, B is the test compound group, and C is the normal group.
In the Equation 5, A is the control group, and B is the test compound group.
The following results were obtained from the study by this method on the effects of lowering serum TC, LDL-C, and TG, and liver TC in the hamsters fed with a high cholesterol diet which were given the test compounds for 7 days.
The compounds in which pyridyl of compound of example 51 and 55 was exchanged for phenyl, were used as comparative compound 1 and 2, respectively. In the same method as Example 112, the suppression rate (%) of an increase in serum TC concentration of comparative compound 1 and 2 were calculated.

[1] = read-out: serum TG lowering effect (serum TG lowering rate)
[2] = read-out: serum LDL-C lowering effect (suppression rate of an increase in serum LDL-C concentration)
[3] = read-out: serum TC lowering effect (suppression rate of an increase in serum TC concentration)
[4] = read-out: liver TC lowering effect (suppression rate of an increase in liver TC concentration)

O=Cc1cc(-c2ccc(N3C(=O)[C@H](SC[C@H](O)c4ccc(F)cc4)[C@H]3c3ccc(O)cc3)cc2)cs1 [Example 67, 4-(4-{(3R,4R)-3-[(2R)-2-(4-fluorophenyl)-2-hydroxyethylthio]-4-(4-hydroxyphenyl)-2-oxoazetidinyl}phenyl)thiophene-2-carbaldehyde]
inhibition in vivo at 0.1 mg/kg [1]: ≥ 20%

O=C1[C@H](SC[C@H](O)c2ccccc2F)[C@@H](c2ccc(O)cc2)N1c1ccc(-c2cccnc2)cc1 [Example 77, (3R,4R)-3-[(2R)-2-(2-fluorophenyl)-2-hydroxyethylthio]-4-(4-hydroxyphenyl)-1-[4-(pyridin-3-yl)phenyl]azetidin-2-one]
inhibition in vivo at 0.1 mg/kg [1]: ≥ 20%

N#Cc1ccc(-c2ccc(N3C(=O)[C@H](SC[C@H](O)c4ccc(Cl)cc4)[C@H]3c3ccc(O)cc3)cc2)cn1 [Example 60, 5-(4-{(3R,4R)-3-[(2R)-2-(4-chlorophenyl)-2-hydroxyethylthio]-4-(4-hydroxyphenyl)-2-oxoazetidinyl}phenyl)pyridine-2-carbonitrile]
inhibition in vivo at 0.1 mg/kg [2]: ≥ 50%
inhibition in vivo at 0.1 mg/kg [1]: ≥ 20%

N#Cc1cncc(-c2ccc(N3C(=O)[C@H](SC[C@H](O)c4ccc(Cl)cc4)[C@H]3c3ccc(O)cc3O)cc2)c1 [Example 65, 5-(4-{(3R,4R)-3-[(2R)-2-(4-chlorophenyl)-2-hydroxyethylthio]-4-(2,4-dihydroxyphenyl)-2-oxoazetidinyl}phenyl)pyridine-3-carbonitrile]
inhibition in vivo at 0.1 mg/kg [2]: ≥ 50%
inhibition in vivo at 0.1 mg/kg [3]: ≥ 50%

O=C1[C@H](SC[C@H](O)c2ccc(F)cc2)[C@@H](c2ccc(O)cc2O)N1c1ccc(-c2cncc(F)c2)cc1 [Example 73, (3R,4R)-3-[(2R)-2-(4-fluorophenyl)-2-hydroxyethylthio]-4-(2,4-dihydroxyphenyl)-1-[4-(5-fluoropyridin-3-yl)phenyl]azetidin-2-one]
inhibition in vivo at 0.01 mg/kg [3]: ≥ 30%
inhibition in vivo at 0.1 mg/kg [2]: ≥ 50%
inhibition in vivo at 0.1 mg/kg [3]: ≥ 50%

Cc1ccc(-c2ccc(N3C(=O)[C@H](SC[C@H](O)c4ccc(F)cc4)[C@H]3c3ccc(O)cc3O)cc2)cn1 [Example 95, (3R,4R)-3-[(2R)-2-(4-fluorophenyl)-2-hydroxyethylthio]-4-(2,4-dihydroxyphenyl)-1-[4-(6-methylpyridin-3-yl)phenyl]azetidin-2-one]
inhibition in vivo at 0.01 mg/kg [2]: ≥ 30%
inhibition in vivo at 0.01 mg/kg [3]: ≥ 30%

O=C1[C@H](SC[C@H](O)c2ccc(Cl)cc2)[C@@H](c2ccc(O)cc2O)N1c1ccc(-c2cncc(Cl)c2)cc1 [Example 96, (3R,4R)-3-[(2R)-2-(4-chlorophenyl)-2-hydroxyethylthio]-4-(2,4-dihydroxyphenyl)-1-[4-(5-chloropyridin-3-yl)phenyl]azetidin-2-one]
inhibition in vivo at 0.01 mg/kg [4]: ≥ 30%

CCNC(=O)c1cncc(-c2ccc(N3C(=O)[C@H](SC[C@H](O)c4ccc(F)cc4)[C@H]3c3ccc(O)cc3)cc2)c1 [Example 49, N-ethyl-5-(4-{(3R,4R)-3-[(2R)-2-(4-fluorophenyl)-2-hydroxyethylthio]-4-(4-hydroxyphenyl)-2-oxoazetidinyl}phenyl)pyridine-3-carboxamide]
inhibition in vivo at 0.1 mg/kg [2]: ≥ 50%
inhibition in vivo at 0.1 mg/kg [3]: ≥ 50%
inhibition in vivo at 0.1 mg/kg [1]: ≥ 20%

O=C1[C@H](SC[C@H](O)c2ccc(Cl)s2)[C@@H](c2ccc(O)cc2)N1c1ccc(-c2cccnc2)cc1 [Example 46, (3R,4R)-3-[(2S)-2-(5-chlorothiophen-2-yl)-2-hydroxyethylthio]-4-(4-hydroxyphenyl)-1-[4-(pyridin-3-yl)phenyl]azetidin-2-one]
inhibition in vivo at 0.1 mg/kg [1]: ≥ 20%

N#Cc1cncc(-c2ccc(N3C(=O)[C@H](SC[C@H](O)c4ccc(F)cc4)[C@H]3c3ccc(O)cc3)cc2)c1 [Example 18, 5-(4-{(3R,4R)-3-[(2R)-2-(4-fluorophenyl)-2-hydroxyethylthio]-4-(4-hydroxyphenyl)-2-oxoazetidinyl}phenyl)pyridine-3-carbonitrile]
inhibition in vivo at 0.01 mg/kg [3]: ≥ 30%
inhibition in vivo at 0.1 mg/kg [2]: ≥ 50%
inhibition in vivo at 0.1 mg/kg [1]: ≥ 20%

Cc1cc(Cl)ccc1[C@@H](O)CS[C@H]1C(=O)N(c2ccc(-c3cccnc3)cc2)[C@@H]1c1ccc(O)cc1 [Example 102, (3R,4R)-3-[(2R)-2-(4-chloro-2-methylphenyl)-2-hydroxyethylthio]-4-(4-hydroxyphenyl)-1-[4-(pyridin-3-yl)phenyl]azetidin-2-one]
inhibition in vivo at 0.1 mg/kg [4]: ≥ 50%
inhibition in vivo at 0.1 mg/kg [2]: ≥ 50%
inhibition in vivo at 0.1 mg/kg [3]: ≥ 50%

O=C1[C@H](SC[C@H](O)c2ccc(Cl)cc2)[C@@H](c2ccc(O)cc2)N1c1ccc(-c2cncnc2)cc1 [Example 69, (3R,4R)-3-[(2R)-2-(4-chlorophenyl)-2-hydroxyethylthio]-4-(4-hydroxyphenyl)-1-[4-(pyrimidin-5-yl)phenyl]azetidin-2-one]
inhibition in vivo at 0.01 mg/kg [2]: ≥ 30%
inhibition in vivo at 0.01 mg/kg [3]: ≥ 30%

COc1ccncc1-c1ccc(N2C(=O)[C@H](SC[C@H](O)c3ccc(F)cc3)[C@H]2c2ccc(O)cc2O)cc1 [Example 64, (3R,4R)-3-[(2R)-2-(4-fluorophenyl)-2-hydroxyethylthio]-4-(2,4-dihydroxyphenyl)-1-[4-(4-methoxypyridin-3-yl)phenyl]azetidin-2-one]
inhibition in vivo at 0.1 mg/kg [2]: ≥ 50%
inhibition in vivo at 0.1 mg/kg [3]: ≥ 50%

Cc1cc(O)ccc1[C@@H]1[C@@H](SC[C@H](O)c2ccc(F)cc2)C(=O)N1c1ccc(-c2cncnc2)cc1 [Example 100, (3R,4R)-3-[(2R)-2-(4-fluorophenyl)-2-hydroxyethylthio]-4-(4-hydroxy-2-methylphenyl)-1-[4-(pyrimidin-5-yl)phenyl]azetidin-2-one]
inhibition in vivo at 0.1 mg/kg [2]: ≥ 50%
inhibition in vivo at 0.1 mg/kg [3]: ≥ 50%
inhibition in vivo at 0.1 mg/kg [1]: ≥ 20%

CCNC(=O)c1cncc(-c2ccc(N3C(=O)[C@H](SC[C@H](O)c4ccc(Cl)cc4)[C@H]3c3ccc(O)cc3)cc2)c1 [Example 106, N-ethyl-5-(4-{(3R,4R)-3-[(2R)-2-(4-chlorophenyl)-2-hydroxyethylthio]-4-(4-hydroxyphenyl)-2-oxoazetidinyl}phenyl)pyridine-3-carboxamide]
inhibition in vivo at 0.1 mg/kg [2]: ≥ 50%

O=C1[C@H](SC[C@H](O)c2ccc(F)cc2)[C@@H](c2ccc(O)c([N+](=O)[O-])c2)N1c1ccc(-c2cccnc2)cc1 [Example 42, (3R,4R)-3-[(2R)-2-(4-fluorophenyl)-2-hydroxyethylthio]-4-(4-hydroxy-3-nitrophenyl)-1-[4-(pyridin-3-yl)phenyl]azetidin-2-one]
inhibition in vivo at 0.1 mg/kg [2]: ≥ 50%

COc1ccc([C@@H](O)CS[C@H]2C(=O)N(c3ccc(-c4cccnc4)cc3)[C@@H]2c2ccc(O)cc2)cc1 [Example 84, (3R,4R)-3-[(2R)-2-hydroxy-2-(4-methoxyphenyl)ethylthio]-4-(4-hydroxyphenyl)-1-[4-(pyridin-3-yl)phenyl]azetidin-2-one]
inhibition in vivo at 0.1 mg/kg [4]: ≥ 50%

O=C1[C@H](SC[C@H](O)c2ccc(F)cc2)[C@@H](c2ccc(O)cc2)N1c1ccc(-c2cncnc2)cc1 [Example 10, (3R,4R)-3-[(2R)-2-(4-fluorophenyl)-2-hydroxyethylthio]-4-(4-hydroxyphenyl)-1-[4-(pyrimidin-5-yl)phenyl]azetidin-2-one]
inhibition in vivo at 0.1 mg/kg [3]: ≥ 50%
inhibition in vivo at 0.1 mg/kg [1]: ≥ 20%

Cc1ccc(-c2ccc(N3C(=O)[C@H](SC[C@H](O)c4ccc(Cl)cc4)[C@H]3c3ccc(O)cc3O)cc2)cn1 [Example 98, (3R,4R)-3-[(2R)-2-(4-chlorophenyl)-2-hydroxyethylthio]-4-(2,4-dihydroxyphenyl)-1-[4-(6-methylpyridin-3-yl)phenyl]azetidin-2-one]
inhibition in vivo at 0.01 mg/kg [2]: ≥ 30%
